No end group written: not given here.
Key:
HEK-293 cells = assay: Mammalian cell viability, MTT assay; assay type: cell-based, Human; conditions: HEK-293, MTT, 24 h, 37 °C, triplicate
Method: The cells were treated with five different concentrations of each peptide ranging from 0.0015 µM to 15 µM for a total of 24 h before viability measurements were performed.
Figure 6 Mammalian cell viability assay—Effects of AP3 peptides on HEK-293 cell viability assayed by MTT metabolic breakdown. A standard density of HEK-293 cells was incubated with serially diluted peptides for 24 h at 37 °C before the assay was performed. Percent viability was normalized to MTT breakdown observed in untreated controls. Color coding of the graph is AP3 (red), AP3K (blue), APX (purple), APX-17 (black), and APX-12 (green). All data represent the average of at least three replicates and error bars represent the standard deviation.
Cellular toxicity of specific peptides was determined by MTT ((3-(4,5-Dimethylthiazol-2-yl)-2,5-Diphenyltetrazolium Bromide)) assay. Human embryonic kidney (HEK) 293 cells with a lenti-CRE luciferase reporter gene were seeded in 96-well plates at a density of 1.5 × 10^4 cells per well and incubated with 5% CO2 at 37 °C for 24 h. Then, cells were treated with appropriate concentrations of peptides (0.0015–15 µM) and control for 24 h. After treatment for 24 h, 10 µL of MTT solution (5 mg MTT/mL PBS) was added to all wells and incubated for 4 h. Then, DMSO was added as a solubilizing agent and the absorbance was recorded at 540 nm. Each peptide concentration was performed in triplicate.

P. aeruginosa ATCC10145 = assay type: cell-based; conditions: ATCC10145, 18 h
Method: (§1) The antibacterial activities of each peptide were determined against various Gram-negative and Gram-positive bacteria using minimum inhibitory concentration (MIC) assays. The MIC is defined as the lowest concentration of peptide that prevents growth of bacteria using the optical density at 600 nm under standard growth conditions.
(§2) Bacteria were streaked from frozen stocks onto Difco LB-miller agar (BD, Franklin Lakes, NJ, USA) plates (E. coli MG1655 ATCC 47076, E. coli D31 [34], S. aureus ATCC25923, P. aeruginosa ATCC10145, K. pneumoniae 700603). Streaked plates were grown overnight at 37 °C and subsequently stored at 4 °C.
(§3) To prepare overnight cultures, a single colony of each bacterial strain was added to LB broth (Difco) in sterile culture tubes. Tubes were placed in the shaking incubator at 37 °C overnight to allow for sufficient bacterial growth. After incubation, dilutions of the overnight culture were made in LB (1:100) or Muller-Hinton broth (Criterion) (1:250) for MIC assay protocols (Hardy Diagnostics, Santa Maria, CA, USA).
(§4) Minimal inhibitory concentrations (MIC) were determined for each peptide The MIC assay was set up by adding 10 µL of the peptide stock solutions to wells of a sterile 96-well plate to which […] of diluted bacterial culture was added. The final bacterial load was ~5.0 × 10^5 cfu/mL as calculated from the Optical Density^@ 600 nm (OD600) measurements of a log-phase culture. The assay plate was incubated at 37 °C for 18 h. Bacterial growth was assayed by absorbance at OD600 using Multiskan microplate reader (Thermo Fisher, Waltham, MA, USA). […] All MIC values are averages of at least triplicate samples.

K. pneumoniae 700603 = assay type: cell-based; conditions: 700603, 18 h
Method: as §1, §2, §3, §4

S. aureus ATCC25923 = assay type: cell-based; conditions: ATCC25923, 18 h
Method: as §1, §2, §3, §4

E. coli = assay type: cell-based; conditions: 18 h
Method: as §1, §2, §3, §4

Substance	cytotoxicity, dead cells (HEK-293 cells; 1.5 µM peptide)	cytotoxicity, dead cells (HEK-293 cells; 15 µM peptide)	MIC (P. aeruginosa ATCC10145) [µM]	MIC (K. pneumoniae 700603) [µM]	MIC (S. aureus ATCC25923) [µM]	MIC (E. coli) [µM]
GWKTLLKKAEVKTVGKLALKHYL-NH2 [AP3K]	~ 18%	~ 40%	0.29	>9.30	2.32	9.3
GWRTLLKKAEVKTVGKLALKHYL-NH2 [AP3]	~ 18%			4.15	4.15	8.3
GYRTLLKKAEVKTVGKLALKHWL-NH2 [APX]			15	>15.0	15	>15.0
KKAEVKTVGKLALKHWL-NH2 [APX-17]			>8.00	>8.00	>8.00	>8.00
KTVGKLALKHWL-NH2 [APX-12]			>15.0	>15.0	>15.0	>15.0
